Read-outs that look alike come from different tables or passages of the source.
How the values were obtained:
Cannabinoid receptor 1 [1] = target: T1, Cannabinoid receptor 1 (Homo sapiens, UniProt P21554); assay: cAMP signaling, red cAMPNomad biosensor, MPXNomad-CB1 HEK293 cell line, antagonism of CP55940; assay type: cell-based; conditions: for reduction in the fluorescence intensity, cAMP assay: CP55940 3 μM
T1 construct: expressed in transfected cells; host or cells: MPXNomad-CB1 HEK293 cell line
Method: (§1) A number of these amino carboxamido adducts with a variety of side chains have been synthesized. This led to interesting CB1R binding affinities of the synthesized molecules. Several of these racemic (glycine, valine) or diastereomeric molecules have binding affinities in single digit nanomolar range (2 nM to 10 nM) obtained from radioligand binding assay. Furthermore, we investigated the antagonist effect of a few compounds to analyze their capability to modulate CBIR induced by CP55940 in the MPXNomad-CB1 HEK293 cell line. This cell line has been validated measuring cAMP signaling and ß-Arrestin mobilization analyzing the fluorescence intensity of the red cAMPNomad and the green ArresNomad biosensors.
(§2) The MPXNomad-CB1 cell line was used to test substances or examine their ability to interact with Cannabinoid receptor 1 where an agonist that binds to CB1 activates a G protein, which in turn causes CAMP to be released and a cellular response that is then internalized by ß-Arrestin. The assay determined the efficacy to block the activation of the CB1 receptor brought on by CP55940 in the MPXNomad-CB1 HEK293 cell line. AM251 1 μM and 3 µM was utilized as the positive control, CP55940 3 μM was used as the negative control, and vehicle (DMSO) served as the zero control. Treatment with CP55940 3 μM produced an increment in the fluorescence intensity of the red cAMPNomad and the green ArresNomad biosensors. […] Instead, the reduction was a 50%, 34% and 22% at 1 μM, 100 nM and 10 nM, respectively in the arrestin assay.

Cannabinoid receptor 1 [2] = target: T1, Cannabinoid receptor 1; assay: β-Arrestin mobilization, green ArresNomad biosensor, MPXNomad-CB1 HEK293 cell line, antagonism of CP55940; assay type: cell-based; conditions: for reduction in the fluorescence intensity, arrestin assay: CP55940 3 μM
Method: as §1, §2

[3] = Metabolic stability in human liver microsomes; assay type: in vitro ADME; conditions: human, liver microsomes; for half-life: read-out: t1/2, min
Brain/CB1 = target: T2, Brain/CB1 (Mus musculus, UniProt P47746); assay: Functional GTPγS binding, Brain/CB1; assay type: biochemical
T2 construct: from tissue; host or cells: mouse brain membranes

[4] = Caco-2 permeability (A-B and B-A); assay type: in vitro ADME; conditions: human; for efflux ratio: Caco-2, quotient of Papp(BA) to Papp(AB)
[5] = Metabolic stability in mouse liver microsomes; assay type: in vitro ADME; conditions: for microsomal CLint / half-life: mouse, liver microsomes; for half-life: read-out: t1/2, min
CB1 = CB1 (UniProt P21554); assay: CB1 radioligand binding assay; parameters: species or system human; conditions: read-out: Ki (CB1)
Summary of the method: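 Radioligand binding to human CB1 stably expressed in CHO cells and to mouse brain membrane CB1 gave binding constants. For selected compounds, antagonism of CP55940-induced CB1 activation was measured in MPXNomad-CB1 HEK293 cells via cAMPNomad (cAMP) and ArresNomad (β-arrestin) fluorescent biosensors.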

iNOS = iNOS (Mus musculus, UniProt P29477); assay: Inducible NOS biochemical assay
Description: Biochemical assay results are presented as the percent inhibition of specific binding or activity (iNOS, CAMP, beta arrestin).

Caco-2 = Caco-2 permeability (A-B and B-A); assay type: in vitro ADME
[6] = vs CP55940, MPXNomad-CB1 HEK293
[7] = Caco-2, mean, read-out: Papp (AB), 10^−6 cm/s, Mean
[8] = Caco-2, mean, read-out: Papp (BA), 10^−6 cm/s, Mean
[9] = Caco-2, replicate 1, read-out: Papp (AB), 10^−6 cm/s, 1
[10] = Caco-2, replicate 1, read-out: Papp (BA), 10^−6 cm/s, 1
[11] = Caco-2, replicate 2, read-out: Papp (AB), 10^−6 cm/s, 2
[12] = Caco-2, replicate 2, read-out: Papp (BA), 10^−6 cm/s, 2

T2 sequence (P47746 whole entry): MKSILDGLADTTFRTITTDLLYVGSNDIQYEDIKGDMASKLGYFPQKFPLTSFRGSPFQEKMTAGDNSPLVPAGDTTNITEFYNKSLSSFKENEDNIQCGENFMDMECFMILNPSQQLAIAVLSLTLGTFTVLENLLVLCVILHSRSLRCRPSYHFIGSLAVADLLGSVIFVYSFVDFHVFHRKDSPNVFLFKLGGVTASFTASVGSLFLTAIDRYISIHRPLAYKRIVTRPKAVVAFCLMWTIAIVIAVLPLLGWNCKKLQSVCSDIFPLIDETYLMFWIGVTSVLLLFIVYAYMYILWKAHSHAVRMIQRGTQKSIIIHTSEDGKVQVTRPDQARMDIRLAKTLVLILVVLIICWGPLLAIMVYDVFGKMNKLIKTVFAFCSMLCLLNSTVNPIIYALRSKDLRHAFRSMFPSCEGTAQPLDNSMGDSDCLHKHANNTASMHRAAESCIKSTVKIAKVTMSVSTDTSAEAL
T1 sequence (P21554 whole entry): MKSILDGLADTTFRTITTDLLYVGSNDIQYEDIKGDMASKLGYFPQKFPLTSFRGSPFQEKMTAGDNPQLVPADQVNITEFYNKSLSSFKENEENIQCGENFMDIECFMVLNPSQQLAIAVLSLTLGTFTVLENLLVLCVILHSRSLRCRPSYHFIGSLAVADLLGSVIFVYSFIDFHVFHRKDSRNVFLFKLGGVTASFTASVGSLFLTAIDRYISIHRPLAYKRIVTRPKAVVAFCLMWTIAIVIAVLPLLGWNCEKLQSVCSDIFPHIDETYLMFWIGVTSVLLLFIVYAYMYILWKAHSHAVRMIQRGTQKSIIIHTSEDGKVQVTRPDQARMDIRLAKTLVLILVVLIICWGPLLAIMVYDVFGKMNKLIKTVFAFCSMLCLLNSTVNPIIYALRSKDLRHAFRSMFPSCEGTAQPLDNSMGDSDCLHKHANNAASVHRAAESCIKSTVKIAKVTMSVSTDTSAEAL

Compound | microsomal CLint [3] [µL/min/mg] | half-life [3] [h] | IC50 (Brain/CB1) [nM] | Papp A→B [4, 7] [×10⁻⁶ cm/s] | Papp B→A [4, 8] [×10⁻⁶ cm/s] | Papp A→B [4, 9] [×10⁻⁶ cm/s] | Papp B→A [4, 10] [×10⁻⁶ cm/s] | Papp A→B [4, 11] [×10⁻⁶ cm/s] | Papp B→A [4, 12] [×10⁻⁶ cm/s] | efflux ratio [4] | microsomal CLint [5] [µL/min/mg] | half-life [5] [h] | Ki (CB1) [nM] | iNOS inhibition % Response (iNOS) [%] | t1/2, min [5] [h] | further results
CC(C)C(N/C(=N/S(=O)(=O)c1ccc(C(F)(F)F)cc1)N1CCC(c2ccccc2)C(c2ccc(Cl)cc2)=N1)C(N)=O (centres unmarked) [2-(3-(4-chlorophenyl)-4-phenyl-N′-((4-(trifluoromethyl)phenyl)sulfonyl)-1,4,5,6-tetrahydropyridazine-1-carboximidamido)-3-methylbutanamide] |  |  |  |  |  |  |  |  |  |  |  |  |  |  |  | IC50 (Cannabinoid receptor 1 [1]; [6]): 0.804 nM; IC50 (Cannabinoid receptor 1 [2]; [6]): 0.227 nM
C/C(N)=N\C(=N\S(=O)(=O)c1ccc(C(F)(F)F)cc1)N1CCC(c2ccccc2)C(c2ccc(Cl)cc2)=N1 (centres unmarked) [Compound 10b, (Z)—N—((E)-1-aminoethylidene)-3-(4-chlorophenyl)-4-phenyl-N′-((4-(trifluoromethyl)phenyl)sulfonyl)-5,6-dihydropyridazine-1 (4H)-carboximidamide] | 2 | 12.7 | 93 | 2.5 | 1.9 | 2.4 | 1.9 | 2.5 | 1.8 | 0.8 | 34 | 0.813 | 15 | 64 |  | reduction in the fluorescence intensity, cAMP assay (Cannabinoid receptor 1 [1]; 10 nM): ~19%; reduction in the fluorescence intensity, cAMP assay (Cannabinoid receptor 1 [1]; 100 nM): ~29%; reduction in the fluorescence intensity, cAMP assay (Cannabinoid receptor 1 [1]; 1 μM): ~47%; reduction in the fluorescence intensity, arrestin assay (Cannabinoid receptor 1 [2]; 10 nM): 22%; reduction in the fluorescence intensity, arrestin assay (Cannabinoid receptor 1 [2]; 100 nM): 34%; reduction in the fluorescence intensity, arrestin assay (Cannabinoid receptor 1 [2]; 1 μM): 50%
N/C(=N\C(=N\S(=O)(=O)c1ccc(C(F)(F)F)cc1)N1CCC(c2ccccc2)C(c2ccc(Cl)cc2)=N1)c1ccc(F)cc1F (centres unmarked) [Compound 10p, (Z)—N—((Z)-amino (2,4-difluorophenyl)methylene)-3-(4-chlorophenyl)-4-phenyl-N′-((4-(trifluoromethyl)phenyl)sulfonyl)-5,6-dihydropyridazine-1 (4H)-carboximidamide] | 6 | 4.8 | 13 | 1.4 | 0.6 | 1.5 | 0.6 | 1.3 | 0.5 | 0.4 | 25 | 1.3 | 9.6 | 36 | 1.13 | 
CC(C)C(N/C(=N/S(=O)(=O)c1ccc(C(F)(F)F)cc1)N1CCC(c2ccccc2)C(c2ccc(Cl)cc2)=N1)C(N)=O (single isomer, unassigned) [Compound 29a, (Z)-2-(3-(4-chlorophenyl)-4-phenyl-N′-((4-(trifluoromethyl)phenyl)sulfonyl)-1,4,5,6-tetrahydropyridazine-1-carboximidamido)-3-methylbutanamide] | 23 | 1.22 | 389 |  |  |  |  |  |  |  |  |  | 13.2 |  | 0.118 | Papp (AB), 10^−6 cm/s, Mean (Caco-2; mean): 1.4 10^−6 cm/s; Papp (BA), 10^−6 cm/s, Mean (Caco-2; mean): 0.5 10^−6 cm/s; efflux ratio (Caco-2; quotient of Papp(BA) to Papp(AB)): 0.4; Papp (AB), 10^−6 cm/s, 1 (Caco-2; replicate 1): 1.4 10^−6 cm/s; Papp (BA), 10^−6 cm/s, 1 (Caco-2; replicate 1): 0.5 10^−6 cm/s; Papp (AB), 10^−6 cm/s, 2 (Caco-2; replicate 2): 1.4 10^−6 cm/s; Papp (BA), 10^−6 cm/s, 2 (Caco-2; replicate 2): 0.5 10^−6 cm/s; Clint [5]: 236 µL/min/mg

Reference: patent US20250197359A1, “CANNABINOID RECEPTOR MODULATING COMPOUNDS” (The U.S.A., as Represented by the Secretary, Department of …, priority 2022, published 2025)
